One series deals with Penicillium italicum. Briefly: Antimicrobial MIC, 96-well broth dilution. The note with it: tested range 0.78–100 μg/mL, 48 h at 27 °C, means of three parallel experiments, read-out: minimum inhibitory concentration (MIC). The format is cell-based. From the text: (§1) In contrast, for fungal inhibition activity, aza-benzofuran compounds show lower activity than oxa-benzofuran compounds. […] In terms of antifungal activity, when compound 5 and 6 form hydroxyl groups at position C-6, their polarity […], making them more susceptible to penetrating fungal cell membranes through hydrophobic mechanisms.
(§2) The minimum inhibitory concentration (MIC) values of antimicrobial activity of compounds 1–4 against three different plant pathogenic […], including Penicillium italicum, Fusarium oxysporum and Colletotrichum musae, and three human pathogenic bacteria, including Salmonella typhimurium (ATCC 6539), Escherichia coli (ATCC 25922) and Staphylococcus aureus (ATCC 12598), were determined via serial dilution technique employing 96-well microtiter plates. In brief, the bacterial cell suspension was adjusted to an inoculum density of 5 × 10^5 cfu/mL by comparison with a MacFarland standard before use. The fungal thallus concentration was adjusted to 1 × 10^6 cfu/mL. The tested compounds in dimethyl sulfoxide (DMSO) were added to PDB/MH broth medium to obtain a series of final concentrations of 100, 50, 25, 12.5, 6.25, 3.13, 1.57, 0.78 μg/mL. DMSO and carbendazim/ciprofloxacin served as negative and positive controls, respectively. The antifungal plates were incubated for 48 h at 27 °C, and the antibacterial plates were incubated for 24 h at 27 °C. Ten microliters of resazurin dissolved in DMSO at 100 μg/mL was added to each well of the microplate, followed by incubation at 27 °C for 3 h. We determined the MIC values by observing color changes using the visual endpoint method. For each parallel experiment, three replicates were measured.

In the next series the test system is Colletotrichum musae. Kind of series: Antimicrobial MIC, 96-well broth dilution. The format is cell-based. The conditions noted are these: tested range 0.78–100 μg/mL, 48 h at 27 °C, means of three parallel experiments; for MIC: 48 h, read-out: minimum inhibitory concentration (MIC).
Text: as §1, §2

A further series has as its system Fusarium oxysporum. Kind of series: Antimicrobial MIC, 96-well broth dilution. It is filed as cell-based. The conditions noted are these: tested range 0.78–100 μg/mL, 48 h at 27 °C, means of three parallel experiments, read-out: minimum inhibitory concentration (MIC).
Text: as §1, §2
(In general: Broth dilution looks for growth in wells or tubes with falling amounts of substance.)

The test system of series [1] is LPS-stimulated RAW 264.7 cells. Kind of series: Inhibition of NO production (Griess reagent) in LPS-stimulated macrophages. It is filed as cell-based, mouse. The conditions noted are these: 4 h pretreatment, 1 μg/mL LPS for 24 h, mean ± SD, three independent experiments. As to the method: (§3) The anti-inflammatory activities of compounds 1–4 were evaluated by assessing the inhibition of nitric oxide (NO) production in lipopolysaccharide (LPS)-stimulated murine macrophage RAW 264.7 cells. […] In addition, we also tested the cytotoxicity of compounds 1–4, and cytotoxicity was assessed independently of LPS stimulation.
The nitrite concentration in the culture medium was measured using the Griess reagent, as previously reported, with slight modifications. The mouse macrophage cell line RAW 264.7 cells were purchased from the Shanghai Institutes for Biological Sciences and cultured in DMEM (high-glucose) medium supplemented with 10% (v/v) fetal bovine serum, 100 μg·mL^−1 penicillin and streptomycin, and 10 mM HEPES at 37 °C in a 5% CO2 atmosphere. Cells were pretreated with different samples dissolved in serum-free culture medium containing 0.5% DMSO (10, 5, 2.5, 1.25, and 0.625 μM) for 4 h, followed by stimulation with 1 μg·mL^−1 LPS for 24 h. Then, 50 μL of cell culture medium was mixed with 100 μL of Griess reagent I and II and incubated at room temperature for 10 min with horizontal shaking, after which the absorbance at 540 nm was measured in a microplate reader. Indomethacin was used as a positive control and was purchased from Sigma-Aldrich (St. Louis, MI, USA) Co. Wells with DMSO were used as a negative control (final DMSO concentration was 0.1%). The NO production inhibition rate was calculated using the flowing formula: NO production inhibition rate (%) =LPS group−Compound group/LPS group−DMSO group×100
IC50 is the concentration of the compound that inhibits 50% of NO production relative to the LPS group. All assays were performed in triplicate. The inhibition rates were calculated and plotted versus test concentrations to afford the IC50 (±SD) for three independent tests. Data were analyzed using SPSS 26.0 software. p < 0.05 was considered statistically significant.

A further series in a line: Cytotoxicity, MTT assay. The format is cell-based. The note with it: mouse. As to the method:
as §3
Cell viability was evaluated using MTT (3-(4,5-Dimethylthiazol-2-yl)-2,5-diphenyltetrazolium bromide) assay. RAW 264.7 cells were seeded in 96-well plates at a density of 5 × 10^3 cells per well and incubated overnight. Cells were incubated with tested compounds (DMSO as solvent) at 37 °C for 72 h. Subsequently, 50 μL of MTT/medium solution (0.5 mg/mL) was added to each well, and the cells were incubated for 1 h at 37 °C. After removing the MTT/medium, 100 μL of DMSO was added to each well. The plate was shaken to dissolve the precipitate, and activity was measured at 540 nm using a microplate reader. Cell viability was calculated using the following formula: Cell viability/% = (Absorbance of treated cells − Absorbance of blank control)/(Absorbance of negative control − Absorbance of blank control) × 100. The half-maximal inhibitory concentration (IC50) was calculated with Origin 8 Pro.
A general note: Formazan colour is commonly taken as a measure of viable cells.

The test system of series [2] is Escherichia coli (ATCC 25922). Briefly: Antimicrobial MIC, 96-well broth dilution. The format is cell-based. The conditions noted are these: ATCC25922, tested range 0.78–100 μg/mL, 24 h at 27 °C, means of three parallel experiments, read-out: minimum inhibitory concentration (MIC).
Text: as §1, §2

Series [3] has as its system Staphylococcus aureus (ATCC 12598). Kind of series: Antimicrobial MIC, 96-well broth dilution. It is filed as cell-based. The note with it: read-out: minimum inhibitory concentration (MIC).
Text: as §1, §2

Series [4] has as its system Salmonella typhimurium (ATCC 6539). Kind of series: Antimicrobial MIC, 96-well broth dilution. It is filed as cell-based. The note with it: Salmonella enterica, 24 h, read-out: minimum inhibitory concentration (MIC).
Text: as §1, §2

Where [5] appears, read: Mus musculus, RAW264.7, RAW 264.7 cells.
Where [6] appears, read: ATCC12598, tested range 0.78–100 μg/mL, 24 h at 27 °C, means of three parallel experiments.
The mark [7] stands for this setting: RAW 264.7 cells, MTT, 72 h, without LPS stimulation, read-out: Cytotoxicity (CC50).

The text below walks through data of PMC12386745, “Benzofuran Derivatives with Antimicrobial and Anti-Inflammatory Activities from Penicillium crustosum SCNU-F0046” (International Journal of Molecular Sciences, 2025).

≈ marks a conversion by molar mass, not a printed value. Where two headings read alike, the source gives them in different places.

With `COC(=O)Nc1nc2ccccc2[nH]1` [Carbendazim, reference compound], the figures for the MIC in the series with Penicillium italicum, with Colletotrichum musae and in the series with Fusarium oxysporum were 0.78 µg/mL (≈ 4.08 µM), 0.78 µg/mL (≈ 4.08 µM) and 1.56 µg/mL (≈ 8.16 µM), respectively.

On to `Cc1ccc(-c2cc(C(F)(F)F)nn2-c2ccc(S(N)(=O)=O)cc2)cc1` [Celecoxib, reference compound], for which, in series [1] (setting [5]), the IC50 came out at 32.1 ± 1.7 µM. This compound also came in with a CC50 at 72 h in “Cytotoxicity, MTT assay” of more than 50 µM.

For `O=C(O)c1cn(C2CC2)c2cc(N3CCNCC3)c(F)cc2c1=O` [Ciprofloxacin, reference compound], the MIC is 0.8 µg/mL (≈ 2.41 µM) in series [2], 0.1 µg/mL (≈ 0.302 µM) in series [3] (setting [6]) and 0.2 µg/mL (≈ 0.604 µM) in series [4].

For `Cc1cc2ccc3cc(C(C)(C)O)oc3c2cn1` [Compound 1], the MIC in series [2] came out at 25 µg/mL (≈ 104 µM); in series [3] (ATCC12598, 24 h), 12.5 µg/mL (≈ 51.8 µM); in series [4], 12.5 µg/mL (≈ 51.8 µM); in the series with Penicillium italicum it was 50 µg/mL (≈ 207 µM); in the series with Colletotrichum musae, 50 µg/mL (≈ 207 µM); in the series with Fusarium oxysporum, 50 µg/mL (≈ 207 µM). For the same compound, the IC50 is 17.3 µM in series [1] (setting [5]) and 17.3 ± 1.6 µM in series [1] (RAW 264.7 cells). Further, the cytotoxic concentration (CC50) at 72 h in “Cytotoxicity, MTT assay” (setting [7]) is more than 50 µM.

For `Cc1cc2ccc3c(c2cn1)OC(C(C)(C)O)C3` (centres unmarked) [Compound 2], the MIC in series [2] was found to be 50 µg/mL (≈ 206 µM); in series [3] (setting [6]), 25 µg/mL (≈ 103 µM); in series [4], 50 µg/mL (≈ 206 µM); with Penicillium italicum, 50 µg/mL (≈ 206 µM); in the series with Colletotrichum musae, 25 µg/mL (≈ 103 µM); in the series on Fusarium oxysporum, 50 µg/mL (≈ 206 µM). Moreover, in series [1] (setting [5]), the IC50 came to 31.5 ± 2.3 µM. Besides, the CC50 at 72 h in “Cytotoxicity, MTT assay” (setting [7]) is more than 50 µM.

Turning to `Cc1cc2ccc3c(c2cn1)O[C@@](O)(C(C)C)C3=O` [Compound 3, TMC-120 C], the 50% cytotoxic concentration (CC50) at 72 h in “Cytotoxicity, MTT assay” (setting [7]) is more than 50 µM.

Turning to `CC(C)=C1Oc2c(ccc3cc(C)ncc23)C1=O` [Compound 4, TMC-120 B], in the series “Cytotoxicity, MTT assay” (setting [7]), the CC50 at 72 h is more than 50 µM.

As to `CC(C)(O)C1Cc2ccc(C=CC(=O)O)c(CO)c2O1` (centres unmarked) [Compound 5], the MIC in series [2] was 50 µg/mL (≈ 180 µM); in series [3] (setting [6]), 50 µg/mL (≈ 180 µM); in series [4], 50 µg/mL (≈ 180 µM); in the series with Penicillium italicum, 12.5 µg/mL (≈ 44.9 µM); in the series with Colletotrichum musae, 12.5 to 25 µg/mL (≈ 44.9 to 89.8 µM); in the series with Fusarium oxysporum, 50 µg/mL (≈ 180 µM). In addition, in the series on Colletotrichum musae, the “minimum inhibitory concentration (MIC)” value was 25 µg/mL (≈ 89.8 µM).

Take `CC(C)C1(O)Oc2c(ccc(CO)c2CO)C1=O` (centres unmarked) [Compound 6]: the MIC is 100 µg/mL (≈ 396 µM) in series [2]; 50 µg/mL (≈ 198 µM) in series [3] (setting [6]); 50 µg/mL (≈ 198 µM) in series [4]; 12.5 µg/mL (≈ 49.6 µM) in the series on Penicillium italicum; 12.5 to 25 µg/mL (≈ 49.6 to 99.1 µM) in the series on Colletotrichum musae; 50 µg/mL (≈ 198 µM) in the series with Fusarium oxysporum. Moreover, the “minimum inhibitory concentration (MIC)” value in the series on Colletotrichum musae was 12.5 µg/mL (≈ 49.6 µM).

One may read the IC50 as the concentration at which inhibition is half-maximal. Usually CC50 stands for the concentration that lowers cell viability or growth by half.
